From US20120220581A1, “IMIDAZO[1,2-b]PYRIDAZINE DERIVATIVES AND THEIR USE AS PDE10 INHIBITORS” (Janssen-Cilag, S.A., priority 2009, published 2012)
Structures can show the parent of a compound that is named as a salt. Where two headings read alike, the source gives them in different places.

How the values were obtained:
PDE10 = biological target: T1, PDE10 (Rattus norvegicus, UniProt Q9QYJ6); test: PDE10 occupancy ([3H]-MP-10, striatum); assay type: in vivo; settings: for ED50 / receptor occupancy at 10 mg/kg: rat; for receptor occupancy at 10 mg/kg: single dose 10 mg/kg
T1 construct: from tissue; host or cells: rat brain sections, striatum (in vivo dosing, ex vivo autoradiography)
T1 sequence (Q9QYJ6 1-794): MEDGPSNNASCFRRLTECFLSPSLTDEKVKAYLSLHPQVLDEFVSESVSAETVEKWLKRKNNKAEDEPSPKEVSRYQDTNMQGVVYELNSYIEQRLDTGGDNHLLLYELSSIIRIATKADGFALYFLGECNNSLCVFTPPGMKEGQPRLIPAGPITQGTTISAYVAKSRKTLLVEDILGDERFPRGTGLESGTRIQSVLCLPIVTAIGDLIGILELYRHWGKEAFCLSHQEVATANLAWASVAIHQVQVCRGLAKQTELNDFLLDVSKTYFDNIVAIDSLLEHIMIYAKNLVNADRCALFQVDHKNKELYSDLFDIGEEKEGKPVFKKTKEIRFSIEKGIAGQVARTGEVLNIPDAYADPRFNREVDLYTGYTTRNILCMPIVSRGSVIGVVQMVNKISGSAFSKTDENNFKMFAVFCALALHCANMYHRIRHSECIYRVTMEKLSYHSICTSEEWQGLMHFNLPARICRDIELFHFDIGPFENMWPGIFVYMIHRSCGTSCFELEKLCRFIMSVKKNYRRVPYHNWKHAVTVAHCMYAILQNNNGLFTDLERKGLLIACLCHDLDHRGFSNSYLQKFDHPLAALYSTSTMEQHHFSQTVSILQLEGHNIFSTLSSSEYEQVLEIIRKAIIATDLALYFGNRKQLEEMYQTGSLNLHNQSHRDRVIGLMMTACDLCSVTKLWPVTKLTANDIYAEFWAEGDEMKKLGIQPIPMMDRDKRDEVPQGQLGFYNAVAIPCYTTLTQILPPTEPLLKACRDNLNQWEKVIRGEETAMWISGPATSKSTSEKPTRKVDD
Method: Dose-response or single dose experiments were performed to measure PDE10 occupancy 1 hour after subcutaneous (s.c.) or oral (p.o.) administration. Male Wistar rats (200 g) were treated by s.c. or p.o. administration of various PDE10 inhibitors. The PDE10 radioligand [^3H]-MP-10 (10 μCi/animal) was injected intravenously (i.v.) 30 minutes before sacrifice. Brains were immediately removed from the skull and rapidly frozen. Twenty μm-thick brain sections were cut using a cryostat-microtome, thaw-mounted on microscope slides and loaded in a β-imager to quantify PDE10 occupancy in the striatum.

[1] = biological target: T2, Rat recombinant PDE10A (rPDE10A2) (Rattus norvegicus, UniProt Q9QYJ6); test: In vitro assay PDE10A (SPA, 3H-cAMP); assay type: biochemical
T2 construct: inferred from the Ni metal chelate purification; made in house; host or cells: Sf9 insect cells (baculovirus)
T2 sequence (Q9QYJ6 1-794): T1 sequence (Q9QYJ6 1-794)
Method in brief: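 Scintillation proximity read-out (cpm) of 3H-cAMP hydrolysis after 60 min at room temperature, with enzyme-free blanks and 1% DMSO controls. Enzyme was Sf9-expressed, Ni-sepharose-purified rat rPDE10A2; substrate 60 nM cAMP with tracer, buffer Tris pH 7.8 containing MgCl2 and EGTA.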

[2] = test system: apomorphine-induced stereotypy in rats; test: Apomorphine-induced stereotypy in rats (APO); assay type: in vivo; settings: Rattus norvegicus
Method: Apomorphine (1.0 mg/kg, i.v.)-induced stereotypy (compulsive sniffing, licking, chewing) was scored every 5 min over the first hour after injection of apomorphine, following a 1 hour interval pre-treatment with the test compound. The score system was: (3) pronounced, (2) moderate, (1) slight, and (0) absent.

[3] = biological target: other members of the PDE family (Homo sapiens, UniProt O00408); test: In vitro PDE selectivity assay (SPA), other members of the PDE family (protocols in Table A); assay type: biochemical; settings: hPDE2A; read-out: PDE 2A (expressed as pIC50) (converted)
Method: Rat recombinant PDE10A (rPDE10A2) was expressed in Sf9 cells using a recombinant rPDE10A baculovirus construct. Cells were harvested after 48 h of infection and the rPDE10A protein was purified by metal chelate chromatography on Ni-sepharose 6FF. Tested compounds were dissolved and diluted in 100% DMSO to a concentration 100 fold of the final concentration in the assay. Compound dilutions (0.4 μl) were added in 384 well plates to 20 μl of incubation buffer (50 mM Tris pH 7.8, 8.3 mM MgCl2, 1.7 mM EGTA). 10 μl of rPDE10A enzyme in incubation buffer was added and the reaction was started by addition of 10 μl substrate to a final concentration of 60 nM cAMP and 0.008 μCi ^3H-cAMP. The reaction was incubated for 60 minutes at room temperature. After incubation, the reaction was stopped with 20 μl of stop solution consisting of 17.8 mg/ml PDE SPA (scintillation proximity assay) beads. After sedimentation of the beads during 30 minutes the radioactivity was measured in a Perkin Elmer Topcount scintillation counter and results were expressed as cpm. For blanc values the enzyme was omitted from the reaction and replaced by incubation buffer. Control values were obtained by addition of a final concentration of 1% DMSO instead of compound. The same assay principle is applied for the measurement of the affinity of the compound for other members of the PDE family with appropriate modifications in incubation buffer, substrate concentration, incubation time and stop solution. An overview of the different protocols is presented in table A. A best fit curve is fitted by a minimum sum of squares method to the plot of % of control value substracted with blanc value versus compound concentration and the half maximal inhibitory concentration (IC50) value is derived from this curve.
The compounds of the invention are generally selective for PDE10 compared to other PDEs and there are a few that also have affinity for PDE1B1, 4D3 and 5A3.

[4] = Table 4 in vitro selectivity, read-out: PDE 10A2 (expressed as pIC50) (converted)
[5] = pIC50 corresponds to the −log IC50 expressed in mol/L, read-out: PDE10A2 pIC50 (converted)
[6] = dose at which 50% of the tested animals show the effect, ≧: active in 30% of the animals at the indicated dose, ≦: active in 60%
[7] = oral, read-out: SD po % occupancy at 10 mg/kg
[8] = po, n.d.: found not active at threshold dose 2.5 mg/kg or 10 mg/kg (a), * not soluble, tested orally as a suspension
[9] = sc, subcutaneous, read-out: SD sc % occupancy at 10 mg/kg
[10] = n.d.: found not active at threshold dose 2.5 mg/kg or 10 mg/kg (a), not further tested

Sequence of other members of the PDE family (O00408 whole entry): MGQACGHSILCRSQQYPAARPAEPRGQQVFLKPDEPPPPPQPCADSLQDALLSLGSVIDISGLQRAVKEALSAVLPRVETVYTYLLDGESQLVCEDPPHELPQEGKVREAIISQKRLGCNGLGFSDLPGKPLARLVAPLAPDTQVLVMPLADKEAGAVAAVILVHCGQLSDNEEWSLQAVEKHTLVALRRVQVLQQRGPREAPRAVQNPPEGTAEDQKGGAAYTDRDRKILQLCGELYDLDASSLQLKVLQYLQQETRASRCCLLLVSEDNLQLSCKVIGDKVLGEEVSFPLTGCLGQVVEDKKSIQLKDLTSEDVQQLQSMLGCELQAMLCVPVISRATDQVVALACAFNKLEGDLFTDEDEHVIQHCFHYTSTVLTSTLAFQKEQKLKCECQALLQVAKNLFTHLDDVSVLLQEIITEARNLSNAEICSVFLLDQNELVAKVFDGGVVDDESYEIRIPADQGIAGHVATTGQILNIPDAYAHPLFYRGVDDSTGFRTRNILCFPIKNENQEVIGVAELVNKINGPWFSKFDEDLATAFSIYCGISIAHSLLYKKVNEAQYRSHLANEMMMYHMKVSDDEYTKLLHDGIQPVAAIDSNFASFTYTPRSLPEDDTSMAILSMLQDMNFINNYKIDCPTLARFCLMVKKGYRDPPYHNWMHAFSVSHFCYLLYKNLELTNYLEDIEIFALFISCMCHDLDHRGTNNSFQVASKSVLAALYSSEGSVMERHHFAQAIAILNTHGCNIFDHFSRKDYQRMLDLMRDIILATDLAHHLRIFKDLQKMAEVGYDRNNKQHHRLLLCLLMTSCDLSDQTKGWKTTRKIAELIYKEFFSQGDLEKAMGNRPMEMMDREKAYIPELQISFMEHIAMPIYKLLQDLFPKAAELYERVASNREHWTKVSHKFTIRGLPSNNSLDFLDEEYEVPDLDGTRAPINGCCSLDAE

| Compound | IC50 [1, 5] | receptor occupancy at 10 mg/kg (PDE10; [7]) | receptor occupancy at 10 mg/kg (PDE10; [9]) | ED50 [2, 10] | other results |
| --- | --- | --- | --- | --- | --- |
| COC(C)(C)Cc1ccc(-c2c(C)nc3c(-c4ccncc4)ccnn23)cn1 [compound 7, 3-[6-(2-methoxy-2-methylpropyl)-3-pyridinyl-2-methyl-8-(4-pyridinyl)-imidazol-1,2-b]pyridazine] | 25.7 nM |  |  |  | ED50 (PDE10; sc, dose response, subcutaneous administration, read-out: PDE10 in vivo occupancy ED50 sc): 1.6 mg/kg; IC50 [1, 4]: 25.7 nM; ED50 [2, 6]: 0.3 mg/kg; IC50 [3]: > 10000 nM |
| COCCOc1ccc(-c2c(C)nc3c(-c4ccncc4)ccnn23)cn1 [compound 21a, 3-[6-(2-methoxyethoxy)-3-pyridinyl]-2-methyl-8-(4-pyridinyl)-imidazo[1,2-b]pyridazine hydrochloride salt] | 151 nM |  |  |  | PDE10 in vivo occupancy ED50 po (PDE10; dose response, oral administration): 14 mg/kg; PDE10 in vivo occupancy ED50 sc (PDE10; dose response, subcutaneous administration): 2.6 mg/kg |
| COC(C)(C)Cc1ccc(-c2c(C)nc3c(-c4ccncc4)cc(C)nn23)cn1 [compound 48, 3-[6-(2-methoxy-2-methylpropyl)-3-pyridinyl]-2,6-dimethyl-8-(4-pyridinyl)-imidazo[1,2-b]pyridazine] | 115 nM |  |  |  | ED50 (PDE10; dose response, oral administration, read-out: PDE10 in vivo occupancy ED50 po): 4.3 mg/kg; IC50 [1, 4]: 115 nM; ED50 [2, 6]: ≥ 2.5 mg/kg; IC50 [3]: > 10000 nM |
| Cc1nc2c(N3CCOCC3)ccnn2c1-c1ccc(OCC(F)(F)F)nc1 [compound 62, 2-methyl-8-(4-morpholinyl)-3-[6-(2,2,2-trifluoroethoxy)-3-pyridinyl]-imidazo[1,2-b]pyridazine] | 257 nM | 38% |  |  | ED50 [2, 8]: > 2.5 mg/kg |
| Cc1nc2c(N3CCOCC3)ccnn2c1-c1ccc(OCC2CC2)nc1 [compound 65, 3-[6-(cyclopropylmethoxy)-3-pyridinyl]-2-methyl-8-(4-morpholinyl)-imidazo[1,2-b]pyridazine] | 162 nM |  | 17% | > 10 mg/kg |  |
| Cc1nc2c(N3CCOCC3)ccnn2c1-c1ccc(OC(C)C)nc1 [compound 66, 2-methyl-3-[6-(1-methylethoxy)-3-pyridinyl]-8-(4-morpholinyl)-imidazo[1,2-b]pyridazine] | 178 nM |  | 29% | > 10 mg/kg |  |
| Cc1nc2c(N3CCOCC3)ccnn2c1-c1ccnc(OC(C)C)c1 [compound 67, 2-methyl-3-[2-(1-methylethoxy)-4-pyridinyl]-8-(4-morpholinyl)-imidazo[1,2-b]pyridazine] | 87.1 nM |  | 1% | > 10 mg/kg |  |
| COCCn1cc(-c2c(C)nc3c(-c4ccncc4)ccnn23)cn1 [compound 114, 3-[1-(2-methoxyethyl)-1H-pyrazol-4-yl]-2-methyl-8-(4-pyridinyl)-imidazo[1,2-b]pyridazine] | 52.5 nM |  | 72% | > 2.5 mg/kg |  |
| COCCn1cc(-c2c(C(C)C)nc3c(-c4ccncc4)ccnn23)cn1 [compound 121, 3-[1-(2-methoxyethyl)-1H-pyrazol-4-yl]-2-(1-methylethyl)-8-(4-pyridinyl)-imidazo[1,2-b]pyridazine] | 234 nM |  | 0% | > 10 mg/kg |  |
| Cc1nc2c(N3CCOCC3)ccnn2c1-c1cnn(CC(F)(F)C2CC2)c1 [compound 128, 3-[1-(2-cyclopropyl-2,2-difluoroethyl)-1H-pyrazol-4-yl]-2-methyl-8-(4-morpholinyl)-imidazo[1,2-b]pyridazine] | 50.1 nM |  | 40% | > 10 mg/kg |  |
| COCCn1cc(-c2c(C)nc3c(N4CCOCC4)cc(C(F)(F)F)nn23)cn1 [compound 130, 3-[1-(2-methoxyethyl)-1H-pyrazol-4-yl]-2-methyl-8-(4-morpholinyl)-6-(trifluoromethyl)-imidazo[1,2-b]pyridazine] | 219 nM | 6% |  |  | ED50 [2, 8]: > 10 mg/kg |
| CCc1nc2c(-c3ccncc3)ccnn2c1-c1cnn(CCOC)c1 [compound 132, 2-ethyl-3-[1-(2-methoxyethyl)-1H-pyrazol-4-yl]-8-(4-pyridinyl)-imidazo[1,2-b]pyridazine] | 70.8 nM |  | 44% | > 10 mg/kg |  |
| Cc1nc2c(N3CCOCC3)ccnn2c1-c1cnn(CC(F)(F)F)c1 [compound 137, 2-methyl-8-(4-morpholinyl)-3-[1-(2,2,2-trifluoroethyl)-1H-pyrazol-4-yl]-imidazo[1,2-b]pyridazine] | 25.7 nM | 12% |  | > 2.5 mg/kg |  |
| FC(F)(F)Cn1cc(-c2c(C3CC3)nc3c(N4CCOCC4)ccnn23)cn1 [compound 138, 2-cyclopropyl-8-(4-morpholinyl)-3-[1-(2,2,2-trifluoroethyl)-1H-pyrazol-4-yl]-imidazo[1,2-b]pyridazine] | 39.8 nM | 11% |  |  | ED50 [2, 8]: > 10 mg/kg |
| COCCn1cc(-c2c(OC)nc3c(N4CCOCC4)ccnn23)cn1 [compound 140, 2-methoxy-3-[1-(2-methoxyethyl)-1H-pyrazol-4-yl]-8-(4-morpholinyl)-imidazo[1,2-b]pyridazine] | 174 nM | 0% |  | > 10 mg/kg |  |
